Measured values as given in PMC9926234, “Iterative computational design and crystallographic screening identifies potent inhibitors targeting the Nsp3 macrodomain of SARS-CoV-2” (Proceedings of the National Academy of Sciences of the …, 2023).
“And” between values parts separate entries of the source, which are not always exact repeats. Equal values may be shown once. Read-outs that look alike come from different tables or passages of the source.

What was measured:
[1] = molecular target: T1, SARS-CoV-2 NSP3 Mac1 (Severe acute respiratory syndrome coronavirus 2, UniProt P0DTD1); assay: biochemical; assay type: binding; conditions: for IC50: read-out: IC50; for Ki: read-out: Ki***
[2] = molecular target: T2, TARG1 (Homo sapiens, UniProt Q9Y530); assay: adapted HTRF-based peptide displacement assay (off-target); assay type: binding; conditions: versus TARG1, in words
T2 construct: Targ1_HTRF; HTRF assay; pET22b(+); His6, TEV; 1-153; made in house
T2 sequence (Q9Y530 with tags, fused parts or gaps): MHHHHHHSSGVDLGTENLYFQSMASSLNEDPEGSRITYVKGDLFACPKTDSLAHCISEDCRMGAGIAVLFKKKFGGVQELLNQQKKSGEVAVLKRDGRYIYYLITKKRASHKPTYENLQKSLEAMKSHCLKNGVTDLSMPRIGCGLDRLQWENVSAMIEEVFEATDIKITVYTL

[3] = molecular target: T3, MacroD2 (Homo sapiens, UniProt A1Z1Q3); assay: as above; assay type: binding; conditions: versus MacroD2, in words
T3 construct: MacroD2_HTRF; HTRF assay; pET22b(+); His6, TEV, Avi; made in house
T3 sequence (A1Z1Q3 with tags, fused parts or gaps): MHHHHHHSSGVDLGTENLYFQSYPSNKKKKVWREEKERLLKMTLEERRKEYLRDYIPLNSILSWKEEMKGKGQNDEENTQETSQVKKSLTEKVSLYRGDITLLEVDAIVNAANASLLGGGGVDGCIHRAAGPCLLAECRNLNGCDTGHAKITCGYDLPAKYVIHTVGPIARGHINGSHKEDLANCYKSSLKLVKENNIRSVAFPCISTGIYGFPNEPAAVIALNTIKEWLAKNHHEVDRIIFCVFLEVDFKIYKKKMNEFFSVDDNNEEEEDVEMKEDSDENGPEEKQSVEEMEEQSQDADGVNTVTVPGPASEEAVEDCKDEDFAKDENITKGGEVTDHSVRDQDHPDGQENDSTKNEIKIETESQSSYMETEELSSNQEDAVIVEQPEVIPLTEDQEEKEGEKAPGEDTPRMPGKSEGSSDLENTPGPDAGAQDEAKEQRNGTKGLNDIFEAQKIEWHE

[4] = molecular target: T1, SARS-CoV-2 NSP3 Mac1; assay type: binding
[5] = test system: P-glycoprotein (human MDR1); assay: in vitro; conditions: dog, MDCK-MDR1, pH 7.4
Protocol: Permeability of compounds was assessed using canine MDR1 knockout and human MDR1 knockin MDCKII cells (MDR1-MDCKII) (Sigma-Aldrich, MTOX1303) in confluent monolayers expressing P-glycoprotein (P-gp) at Enamine biological services Bienta LTD (Kyiv, Ukraine).
Canine MDR1 knockout, human MDR1 knockin MDCKII cell (MDR1-MDCKII) (Sigma-Aldrich,
MTOX1303) suspension (400 μl) was added to each well of high throughput screening multiwell
insert system plates. Test compounds were prepared as 20 mM DMSO stocks. The test compound
(300 µl) was dissolved in transport buffer (9.5 g/l Hanks’ balanced salt solution and 0.35 g/l NaHCO3
wells whereas 1000 µl of transport buffer was added to transport analysis plate wells in order to
determine apical (A) to basolateral (B) transport. Basolateral to apical transport was measured by
adding 1000 µl of the test compound solution into the transport analysis plate wells whereas 300
µl of buffer was used to fill the filter plate wells.
were taken from the donor and receiver compartments for LC-MS/MS analysis. Samples were
mixed with acetonitrile followed by protein sedimentation by centrifugation at 1000 rpm for 10 min.
HPLC coupled with tandem mass spectroscopy was performed using the Shimadzu Prominence
HPLC system coupled with the API 5000 (PE Sciex) spectrometer. Both the positive and negative
ion modes of the TurboIonSpray ion source were used. The apparent permeability (Papp) was
computed using the equation 1, where VA is the volume of transport buffer in acceptor wel, Area is
the surface area of the insert, Time is the assay time, [drug]acc is the peak area of test compound
in acceptor well, and [drug]initial,d is the initial amount of the test compound in a donor well.

[6] = molecular target: T1, SARS-CoV-2 NSP3 Mac1; assay type: binding; design: contains a conserved macrodomain enzyme (Mac1)
Method in brief: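 ΔTma values are thermal shifts relative to a co-located DMSO-only control, read with 5 µM Fluorescent Yellow dye. Each compound was tested in triplicate over seven concentrations (two-fold steps, top 1,000 or 100 μM). Spearman correlation of concentration versus ΔTma tested whether the shift was dose-responsive.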

[7] = molecular target: T1, SARS-CoV-2 NSP3 Mac1; assay: biochemical; design: HTRF ADPr-peptide displacement assay with Mac1, dose-response IC50; conditions: read-out: IC50 [µM] / 0.5, 1.2, 1.4
[8] = molecular target: T1, SARS-CoV-2 NSP3 Mac1; design: contains a conserved macrodomain enzyme (Mac1); differential scanning fluorimetry, maximum thermal upshift; conditions: binder
[9] = molecular target: T1, SARS-CoV-2 NSP3 Mac1; design: contains a conserved macrodomain enzyme (Mac1); Differential scanning fluorimetry of Mac1, maximum thermal upshift; conditions: maximum shift over tested concentrations; binder
[10] = test system: SARS-CoV-2 NSP3 Mac1; assay: Overall hit call (binding in crystallographic soaking or the HTRF-based binding assay)
From the text: Supplement pnas.2212931120.sd01.xlsx, sheet "Compound Summary" | column: HIT*

[11] = molecular target: T1, SARS-CoV-2 NSP3 Mac1; design: method as in PMID 33853786; conditions: cited from earlier work
[12] = PanDDA event map background density correction, crystal soak, compound concentration 100 mM
[13] = PanDDA event map, 1 minus background density correction, crystal soaking of Mac1
[14] = PanDDA event map, crystal soak, Compound_concentration 100 mM, Echo_dispense_volume 40 nl
[15] = crystal soak, Compound_concentration 100 mM, Echo_dispense_volume 40 nl, PanDDA run (background map) dmso_34, nohits_35 or nohits_62
[16] = ligand modeled in the crystal structure, crystal soak, compound concentration 100 mM

## O=C(NC1c2cccc(O)c2CC1C(=O)O)c1ccc2[nH]c(CO)nc2c1 (centres unmarked) [Z8539_0002]
[1]; HTRF ADPr-peptide displacement from SARS-CoV-2 Mac1
  IC50: 1.3 to 6.7 µM
[1]; HTRF
  IC50: 1.3 µM and 6.7 µM
[1]; Ki estimation from HTRF-derived IC50, Cheng-Prusoff, peptide 400nM, Kd 2.68µM
  Ki: 1.1 µM and 5.8 µM
[2]
  selectivity for viral Mac1 over human macrodomain: selective for viral Mac1
[3]
  selectivity for viral Mac1 over human macrodomain: selective for viral Mac1
[4]; PanDDA 1-BDC value of the event, crystal soak, compound concentration 100 mM, per dataset
  1-BDC: 0.26
[4]; [12]
  1-BDC: 0.19
[4]; [13]
  1-BDC: 0.29
  1-BDC (PanDDA): 0.19
[4]; [14]
  1-BDC: 0.29
[4]; [15]
  PanDDA hit?: TRUE
[4]; crystal soak, compound concentration 100 mM, per dataset
  PanDDA hit?: TRUE
[4]; ligand modeled from this dataset, compound concentration 100 mM, Echo dispense volume 40 or 80 nl
  Modeled?: TRUE
[4]; [16]
  Modeled?: TRUE
[4]; true hit = binding in crystallographic soaking or the HTRF-based binding assay
  HIT*: Y
[5]
  Papp A→B: 0.8 ± 0.2 ×10⁻⁶ cm/s
  Papp B→A: 1.4 ± 1 ×10⁻⁶ cm/s
[6]; DSF dose responsiveness, 1 µM nsp3 mac1, adj p given
  Spearman est (compound concentration vs apparent Tm): 0.74
[6]; maximal thermal upshift
  DSF max dTma: 5.39 ˚C

## O=C(NC1c2cccc(O)c2CC1C(=O)O)c1cnc2c(c1)CCCN2 (centres unmarked) [Z8539_0006, 8539_0006]
[7]
  IC50: 168 µM
[8]
  DSF max dTma: 0 degC

## O=C(NC1c2cccc(O)c2CC1C(=O)O)c1cnc(NC2CCOCC2)cn1 (centres unmarked) [Z8539_0007, 8539_0007]
[7]
  IC50: 6.4 µM
[9]
  DSF max dTma: 3.42 °C

## O=C(NC1c2cccc(O)c2CC1C(=O)O)c1ccc(NCC2CC2)nc1 (centres unmarked) [Z8539_0009, 8539_0009]
[7]
  IC50: 17.1 µM
[9]
  DSF max dTma: 2.03 °C

## O=C1COc2cc(C(=O)NC3c4cccc(O)c4CC3C(=O)O)ccc2N1 (centres unmarked) [Z8539_0014, 8539_0014]
[7]
  IC50: 27.9 µM
[9]
  DSF max dTma: 1.83 °C

## O=C(Nc1ccc(C(=O)NC2c3ccccc3CC2C(=O)O)cc1)NC1CC1 (centres unmarked) [Z8539_0029, 8539_0029]
[7]
  IC50: 4.8 µM
[9]
  DSF max dTma: 3.66 °C

## O=C(Nc1ccc(C(=O)N[C@H]2c3ccccc3CC[C@H]2C(=O)O)cc1)NC1CC1 [Z8539_0030, 8539_0030]
[7]
  IC50: 5.9 µM
[9]
  DSF max dTma: 4.92 °C

## O=C(NC1c2cccc(O)c2CC1C(=O)O)c1ccc2[nH]cnc2c1 (centres unmarked) [Z8539_2001]
[1]
  binding to Mac1 in the HTRF assay, result in words: did not affect the binding affinity
  Ki: 4.7 µM
[1]; HTRF ADPr-conjugated peptide displacement
  IC50: 5.4 µM
[2]
  selectivity for viral Mac1 over human macrodomain: selective for viral Mac1
[3]
  selectivity for viral Mac1 over human macrodomain: selective for viral Mac1
[4]; [12]
  1-BDC: 0.23 and 0.42
[4]; [13]
  1-BDC (PanDDA): 0.23
[4]; [14]
  1-BDC: 0.21
[4]; [15]
  PanDDA hit?: TRUE
[4]; [16]
  Modeled?: TRUE
[4]; ligand occupancy after refinement (phenix.refine), crystal soaking of Mac1
  Refined occupancy: 46
[10]
  HIT*: Y
[5]
  Papp A→B: 1.1 ± 0.1 ×10⁻⁶ cm/s
  Papp B→A: 0.5 ×10⁻⁶ cm/s

## Nc1ncnc(N2CCC(Oc3ccncc3)C2)c1Cl (centres unmarked) [Z9710, ZINC000302059710]
[8]
  DSF max dTma: 0 degC

## Nc1ccc(C(=O)O)cc1 [ZINC920, 4-aminobenzoic acid]
[11]
  binding to Mac1 in the fragment screen, result in words: did not bind
